pIC50: −log10 of the molar value.
Legend:
A-375 = test: Antiproliferative activity against human A375 cells assessed as reduction in cell viability incubated for 72 hrs by MTT assay; type: functional, cell-based; conditions: A-375, 72 h
HCT-116 = test: Antiproliferative activity against human HCT116 cells assessed as reduction in cell viability incubated for 72 hrs by MTT assay; type: functional, cell-based; conditions: HCT-116, 72 h
HeLa = test: Antiproliferative activity against human HeLa cells assessed as reduction in cell viability incubated for 72 hrs by MTT assay; type: functional, cell-based
[1] = biological target: Serine/threonine-protein kinase mTOR (Homo sapiens, UniProt P42345); test: Inhibition of recombinant human N-terminal FLAG-tagged mTOR (1362 to end residues) using Ulight-4E-BP1 as substrate incubated for 30 mins by fluorescence assay
[2] = biological target: PI3-kinase p110-delta/p85-alpha (Homo sapiens, UniProt O00329); test: Inhibition of recombinant human full length N-terminal GST-tagged PI3Kdelta (1 to 1044 residues)/PIK3R1 (1 to 724 residues) expressed in baculovirus expression system using PIP2 as substrate incubated for 2 hrs by ADP-Glo assay
[3] = biological target: Phosphatidylinositol 4,5-bisphosphate 3-kinase catalytic subunit alpha isoform (Homo sapiens, UniProt P42336); test: Inhibition of recombinant human full length N-terminal GST-tagged PI3Kalpha (1 to 1068 residues)/PIK3R1 (1 to 724 residues) expressed in baculovirus expression system using PIP2 as substrate incubated for 1 hr by ADP-Glo assay
MCF7 = test: cells; conditions: Homo sapiens, MCF7, 72 h
HepG2 = test: cells; conditions: Homo sapiens, HepG2, 72 h
A549 = test: cells; conditions: Homo sapiens, A549, 72 h

Phosphatidylinositol 4,5-bisphosphate 3-kinase catalytic subunit alpha isoform, sequence (P42336 whole entry, looked up, the tested form may be a part, canonical isoform): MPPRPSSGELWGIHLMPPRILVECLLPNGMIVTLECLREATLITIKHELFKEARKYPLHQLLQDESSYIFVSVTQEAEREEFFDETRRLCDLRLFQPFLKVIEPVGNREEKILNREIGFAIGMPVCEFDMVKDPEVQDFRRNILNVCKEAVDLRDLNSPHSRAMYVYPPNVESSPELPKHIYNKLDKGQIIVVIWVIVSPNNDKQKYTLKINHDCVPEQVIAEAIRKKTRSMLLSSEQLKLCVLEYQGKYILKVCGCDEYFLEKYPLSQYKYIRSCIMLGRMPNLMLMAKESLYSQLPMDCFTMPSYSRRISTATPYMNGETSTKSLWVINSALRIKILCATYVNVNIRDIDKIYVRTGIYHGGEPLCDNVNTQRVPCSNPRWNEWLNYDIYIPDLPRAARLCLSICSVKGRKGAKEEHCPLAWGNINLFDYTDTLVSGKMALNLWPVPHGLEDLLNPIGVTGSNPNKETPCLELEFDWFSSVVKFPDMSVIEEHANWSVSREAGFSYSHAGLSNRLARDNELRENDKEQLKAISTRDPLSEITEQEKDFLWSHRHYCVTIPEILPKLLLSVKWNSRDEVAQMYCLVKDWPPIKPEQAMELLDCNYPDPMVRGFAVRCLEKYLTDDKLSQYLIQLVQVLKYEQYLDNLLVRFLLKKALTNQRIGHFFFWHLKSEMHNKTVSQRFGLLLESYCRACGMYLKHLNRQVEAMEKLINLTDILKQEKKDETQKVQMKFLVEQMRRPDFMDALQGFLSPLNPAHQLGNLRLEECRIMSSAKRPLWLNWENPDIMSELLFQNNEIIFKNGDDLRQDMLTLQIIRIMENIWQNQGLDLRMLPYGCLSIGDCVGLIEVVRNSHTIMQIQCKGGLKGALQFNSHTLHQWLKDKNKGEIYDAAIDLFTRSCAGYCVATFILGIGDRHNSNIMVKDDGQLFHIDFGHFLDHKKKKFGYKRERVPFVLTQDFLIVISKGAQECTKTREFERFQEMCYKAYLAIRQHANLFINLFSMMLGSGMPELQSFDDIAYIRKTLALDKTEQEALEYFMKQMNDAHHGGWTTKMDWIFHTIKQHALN
PI3-kinase p110-delta/p85-alpha, sequence (P27986 whole entry, the tested form may be a part, canonical isoform): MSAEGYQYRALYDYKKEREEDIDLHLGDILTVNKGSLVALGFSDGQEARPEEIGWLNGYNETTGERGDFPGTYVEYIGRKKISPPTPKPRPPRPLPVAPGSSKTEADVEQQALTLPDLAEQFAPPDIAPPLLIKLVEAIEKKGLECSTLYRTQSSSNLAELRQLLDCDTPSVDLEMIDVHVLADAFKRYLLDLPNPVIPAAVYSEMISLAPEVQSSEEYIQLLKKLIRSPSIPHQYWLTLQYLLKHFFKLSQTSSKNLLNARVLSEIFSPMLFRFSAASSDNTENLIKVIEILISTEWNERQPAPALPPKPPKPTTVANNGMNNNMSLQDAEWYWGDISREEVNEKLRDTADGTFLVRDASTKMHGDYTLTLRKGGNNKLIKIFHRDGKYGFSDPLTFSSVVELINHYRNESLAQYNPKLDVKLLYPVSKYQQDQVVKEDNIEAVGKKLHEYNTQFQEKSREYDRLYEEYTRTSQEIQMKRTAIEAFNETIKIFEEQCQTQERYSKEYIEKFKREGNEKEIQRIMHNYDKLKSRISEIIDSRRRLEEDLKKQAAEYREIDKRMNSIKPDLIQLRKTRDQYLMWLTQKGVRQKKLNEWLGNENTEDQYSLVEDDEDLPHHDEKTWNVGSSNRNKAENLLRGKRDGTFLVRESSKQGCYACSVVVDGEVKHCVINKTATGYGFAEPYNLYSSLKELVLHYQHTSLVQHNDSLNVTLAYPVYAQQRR
PI3-kinase p110-delta/p85-alpha, sequence (O00329 whole entry, the tested form may be a part, canonical isoform): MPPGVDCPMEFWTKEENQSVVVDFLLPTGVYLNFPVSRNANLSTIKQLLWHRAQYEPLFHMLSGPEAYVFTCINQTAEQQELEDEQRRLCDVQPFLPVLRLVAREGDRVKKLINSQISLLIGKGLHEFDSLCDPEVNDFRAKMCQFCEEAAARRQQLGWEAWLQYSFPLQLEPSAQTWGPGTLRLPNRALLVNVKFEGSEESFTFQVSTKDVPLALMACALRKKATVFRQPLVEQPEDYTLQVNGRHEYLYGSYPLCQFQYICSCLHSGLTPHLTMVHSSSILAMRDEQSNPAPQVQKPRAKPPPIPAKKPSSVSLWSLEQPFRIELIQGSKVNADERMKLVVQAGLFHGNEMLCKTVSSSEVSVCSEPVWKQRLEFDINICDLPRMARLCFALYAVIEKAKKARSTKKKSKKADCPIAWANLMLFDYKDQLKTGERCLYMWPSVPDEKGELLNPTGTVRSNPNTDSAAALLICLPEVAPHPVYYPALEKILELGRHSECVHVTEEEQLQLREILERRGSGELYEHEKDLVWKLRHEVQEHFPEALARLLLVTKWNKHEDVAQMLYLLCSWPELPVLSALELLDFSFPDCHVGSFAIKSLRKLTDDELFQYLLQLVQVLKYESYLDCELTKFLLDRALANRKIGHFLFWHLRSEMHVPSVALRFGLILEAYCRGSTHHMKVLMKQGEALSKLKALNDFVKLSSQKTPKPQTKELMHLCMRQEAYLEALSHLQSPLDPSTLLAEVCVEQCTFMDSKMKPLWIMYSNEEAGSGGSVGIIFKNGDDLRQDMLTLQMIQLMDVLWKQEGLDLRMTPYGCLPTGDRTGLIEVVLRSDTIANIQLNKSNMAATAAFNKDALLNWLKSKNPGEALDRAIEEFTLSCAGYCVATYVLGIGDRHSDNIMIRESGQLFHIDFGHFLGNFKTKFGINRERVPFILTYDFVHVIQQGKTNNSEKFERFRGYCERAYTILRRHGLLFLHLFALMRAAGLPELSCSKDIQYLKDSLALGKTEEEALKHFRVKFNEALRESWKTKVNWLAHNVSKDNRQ

pIC50 (A-375) | pIC50 (HCT-116) | pIC50 (HeLa) | pIC50 [1] | pIC50 [2] | pIC50 [3] | pIC50 (MCF7) | pIC50 (HepG2) | pIC50 (A549) | SMILES
< 4.40 | < 4.40 | < 4.40 | < 6.00 | < 6.00 | < 6.00 | < 4.40 | < 4.40 | < 4.40 | O=C1COc2ccc(-c3cccc(NS(=O)(=O)c4ccc(F)cc4)c3)cc2N1C1CC1
< 4.40 | < 4.40 | < 4.40 | < 6.00 | < 6.00 | < 6.00 | 4.48 | 4.49 | < 4.40 | O=C1COc2ccc(-c3ccc(O)cc3)cc2N1C1CC1
< 4.40 | < 4.40 | < 4.40 | < 6.00 | < 6.00 | < 6.00 | < 4.40 | < 4.40 | < 4.40 | COc1cccc(N2C(=O)COc3ccc(-c4cccc(NS(=O)(=O)c5ccc(F)cc5)c4)cc32)c1
< 4.40 | 4.44 | < 4.40 | < 6.00 | < 6.00 | < 6.00 | < 4.40 | 4.49 | < 4.40 | O=C1COc2ccc(-c3cnc4ccccc4c3)cc2N1c1ccc(Cl)cc1
< 4.40 | < 4.40 | < 4.40 | < 6.00 | < 6.00 | < 6.00 | < 4.40 | 4.42 | < 4.40 | O=C1COc2ccc(-c3ccc(O)cc3)cc2N1
< 4.40 | < 4.40 | < 4.40 | < 6.00 | < 6.00 | < 6.00 | 4.53 | < 4.40 | < 4.40 | O=C1COc2ccc(-c3cnc4ccccc4c3)cc2N1C1CC1
< 4.40 | < 4.40 | < 4.40 | < 6.00 | < 6.00 | < 6.00 | < 4.40 | < 4.40 | < 4.40 | COc1ccc(N2C(=O)COc3ccc(-c4cnc5ccccc5c4)cc32)cc1
4.70 | < 4.40 | < 4.40 | < 6.00 | < 6.00 | < 6.00 | 4.74 | < 4.40 | 4.49 | O=C1COc2ccc(-c3cccc(NS(=O)(=O)c4ccc(F)cc4)c3)cc2N1

SMILES | pIC50 (A-375) | pIC50 (HCT-116) | pIC50 (HeLa) | pIC50 [1] | pIC50 [2] | pIC50 [3] | pIC50 (MCF7) | pIC50 (HepG2) | pIC50 (A549)
COc1ncc(-c2ccc3c(c2)N(c2ccc(Cl)cc2)C(=O)CO3)cc1NS(=O)(=O)c1ccc(F)cc1 | 4.62 | 4.72 | 5.32 | 7.90 | 7.74 | 7.66 | 4.56 | 4.75 | 5.08
O=C1COc2ccc(-c3cccc(NS(=O)(=O)c4ccc(F)cc4)c3)cc2N1c1ccc(F)cc1 | < 4.40 | < 4.40 | < 4.40 | < 6.00 | < 5.00 | < 6.00 | < 4.40 | < 4.40 | < 4.40
Cc1ccc(N2C(=O)COc3ccc(-c4cccc(NS(=O)(=O)c5ccc(F)cc5)c4)cc32)cc1 | 4.44 | 4.45 | < 4.40 | < 6.00 | < 6.00 | < 6.00 | 4.49 | < 4.40 | < 4.40
Cc1ccc(N2C(=O)COc3ccc(-c4cnc(Cl)c(NS(=O)(=O)c5ccc(F)cc5)c4)cc32)cc1 | 4.41 | 4.46 | 4.49 | 7.71 | 8.43 | 8.39 | 4.49 | 4.40 | 4.51
O=C1COc2ccc(-c3cnc(Cl)c(NS(=O)(=O)c4ccc(F)cc4)c3)cc2N1C1CC1 | 4.66 | 4.91 | 5.14 | 6.57 | 7.21 | 7.07 | 4.78 | 5.07 | 5.36
